Source: the supplement of paper PMC8617591

Columns and labels:
[1] = tested on: Mycobacterium tuberculosis Erdman (autoluminescent); assay: FIC90 (Loewe) at 90% inhibition (log2); higher = more antagonistic
Experimental: (§1)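 DiaMOND equipotent two-drug combination dose responses against autoluminescent M. tuberculosis Erdman in 8 in vitro models. Read-out is OD600, or luminescence for the intracellular and dormancy models, normalised to untreated wells. Hill-fit Einf, AUC25 and GRinf are potency metrics; FIC50 and FIC90 are Loewe-additivity fractional inhibitory concentrations, given as log2 (negative = synergy). Replicates are averaged.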

[2] = tested on: Mycobacterium tuberculosis Erdman (autoluminescent); assay: GRinf, maximum normalised growth rate inhibition (unitless (-1 to 1)); higher = less effect (negative = killing)
Experimental: as §1

[3] = tested on: Mycobacterium tuberculosis Erdman (autoluminescent); assay: FIC50 (Loewe) at 50% inhibition (log2); higher = more antagonistic
Experimental: as §1

[4] = tested on: Mycobacterium tuberculosis Erdman (autoluminescent); assay: Einf, fitted maximum growth inhibition of combination (fraction); higher = stronger maximal inhibition
Experimental: as §1

[5] = tested on: Mycobacterium tuberculosis Erdman (autoluminescent); assay: AUC25, normalised area under dose response up to IC25 (fraction (0-1)); higher = more potent at low dose
Experimental: as §1

[6] = tested on: Mycobacterium tuberculosis Erdman (autoluminescent); assay: as above; remark: listed apart in the source
Experimental: (§2)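 DiaMOND dose responses (10 doses, 1.5- or 2-fold spacing, equipotent around IC90) of autoluminescent M. tuberculosis Erdman in 8 in vitro models. Read-out is OD600, or luminescence for the intracellular (J774) and dormancy models, background-subtracted and normalised to untreated wells. A 3-parameter Hill fit gives Einf and AUC25 (area to IC25 normalised by IC25); GRinf comes from a Hill fit of the Hafner normalised growth rate. Biological replicates passing QC are averaged. Single drugs only.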

[7] = tested on: Mycobacterium tuberculosis Erdman (autoluminescent); assay: Einf, fitted maximum growth inhibition (fraction); higher = stronger maximal inhibition
Experimental: as §2

[8] = tested on: Mycobacterium tuberculosis Erdman (autoluminescent); assay: GRinf, maximum normalised growth rate inhibition (unitless (-1 to 1)); higher = less effect (negative = killing); remark: listed apart in the source
Experimental: as §2

[9] = in vitro model: acidic pH 5.7, time point: terminal (~4-5 doublings, model-specific)
[10] = in vitro model: butyrate, time point: terminal (~4-5 doublings, model-specific)
[11] = in vitro model: cholesterol-high 0.2 mM, time point: terminal (~4-5 doublings, model-specific)
[12] = in vitro model: dormancy (butyrate + nitrate, low O2), time point: constant (~7 days, model-specific)
[13] = in vitro model: dormancy (butyrate + nitrate, low O2), time point: terminal (~4-5 doublings, model-specific)
[14] = in vitro model: intracellular J774, time point: constant = terminal
[15] = in vitro model: valerate, time point: terminal (~4-5 doublings, model-specific)
[16] = in vitro model: acidic pH 5.7, time point: constant (~7 days, model-specific)
[17] = in vitro model: butyrate, time point: constant (~7 days, model-specific)
[18] = in vitro model: cholesterol 0.05 mM, time point: constant (~7 days, model-specific)
[19] = in vitro model: cholesterol 0.05 mM, time point: terminal (~4-5 doublings, model-specific)
[20] = in vitro model: cholesterol-high 0.2 mM, time point: constant (~7 days, model-specific)
[21] = in vitro model: standard 7H9 glycerol, time point: constant = terminal
[22] = in vitro model: valerate, time point: constant (~7 days, model-specific)

Q: For `NC(=O)c1cnccn1` [pyrazinamide] + CO[C@H]1/C=C/O[C@@]2(C)Oc3c(C)c(O)c4c(O)c(c(/C=N/N5CCN(C)CC5)c(O)c4c3C2=O)NC(=O)/C(C)=C\C=C\[C@H](C)[C@H](O)[C@@H](C)[C@@H](O)[C@@H](C)[C@H](OC(C)=O)[C@@H]1C [rifampicin], which FIC90 [1, 9] is on record?
A: The FIC90 was -1.3.

Q: And the FIC90 [1, 10]?
A: Its FIC90 is 2.41.

Q: And the FIC90 [1, 11]?
A: Its FIC90 is 1.5.

Q: And the FIC90 [1, 12]?
A: Its FIC90 is 0.25.

Q: And the FIC90 [1, 13]?
A: The FIC90 was 0.408.

Q: And the FIC90 [1, 14]?
A: Its FIC90 is -0.135.

Q: And the FIC90 [1, 15]?
A: Its FIC90 is 0.361.

Q: And the GRinf [2, 16]?
A: The GRinf was -0.451.

Q: And the GRinf [2, 9]?
A: Its GRinf is -0.278.

Q: And the GRinf [2, 17]?
A: The GRinf was 0.188.

Q: And the GRinf [2, 10]?
A: Its GRinf is 0.216.

Q: What about the GRinf [2, 18] of the same compound?
A: Its GRinf is 0.0467.

Q: And the GRinf [2, 19]?
A: Its GRinf is -0.0969.

Q: And the GRinf [2, 20]?
A: Its GRinf is -0.177.

Q: What about the GRinf [2, 11] of the same compound?
A: The GRinf was -0.819.

Q: What about the GRinf [2, 12] of the same compound?
A: Its GRinf is 0.249.

Q: And the GRinf [2, 13]?
A: Its GRinf is -0.179.

Q: What about the GRinf [2, 14] of the same compound?
A: The GRinf was -0.472.

Q: And the GRinf [2, 21]?
A: Its GRinf is 0.144.

Q: And the GRinf [2, 22]?
A: Its GRinf is 0.201.

Q: What about the GRinf [2, 15] of the same compound?
A: Its GRinf is 0.149.

Q: What about the FIC50 [3, 16] of the same compound?
A: The FIC50 was -0.484.

Q: What about the FIC50 [3, 9] of the same compound?
A: The FIC50 was -0.21.

Q: What about the FIC50 [3, 17] of the same compound?
A: The FIC50 was 0.347.

Q: And the FIC50 [3, 10]?
A: The FIC50 was 0.398.

Q: What about the FIC50 [3, 19] of the same compound?
A: Its FIC50 is 0.59.

Q: What about the FIC50 [3, 20] of the same compound?
A: Its FIC50 is 1.2.

Q: What about the FIC50 [3, 11] of the same compound?
A: The FIC50 was 1.54.

Q: And the FIC50 [3, 12]?
A: Its FIC50 is -0.268.

Q: What about the FIC50 [3, 13] of the same compound?
A: The FIC50 was -0.19.

Q: What about the FIC50 [3, 21] of the same compound?
A: The FIC50 was -0.199.

Q: And the FIC50 [3, 22]?
A: Its FIC50 is 0.449.

Q: What about the FIC50 [3, 15] of the same compound?
A: The FIC50 was 0.477.

Q: What about the Einf [4, 16] of the same compound?
A: Its Einf is 0.932.

Q: What about the Einf [4, 9] of the same compound?
A: The Einf was 0.992.

Q: And the Einf [4, 17]?
A: The Einf was 0.839.

Q: What about the Einf [4, 10] of the same compound?
A: The Einf was 0.915.

Q: What about the Einf [4, 18] of the same compound?
A: Its Einf is 0.607.

Q: And the Einf [4, 19]?
A: The Einf was 0.887.

Q: What about the Einf [4, 20] of the same compound?
A: Its Einf is 0.91.

Q: What about the Einf [4, 11] of the same compound?
A: Its Einf is 1.

Q: What about the Einf [4, 12] of the same compound?
A: The Einf was 0.9.

Q: And the Einf [4, 13]?
A: Its Einf is 0.983.

Q: And the Einf [4, 14]?
A: The Einf was 0.989.

Q: And the Einf [4, 21]?
A: Its Einf is 0.896.

Q: What about the Einf [4, 22] of the same compound?
A: Its Einf is 0.761.

Q: And the Einf [4, 15]?
A: The Einf was 0.903.

Q: What about the AUC25 [5, 16] of the same compound?
A: The AUC25 was 0.0773.

Q: And the AUC25 [5, 9]?
A: The AUC25 was 0.0598.

Q: And the AUC25 [5, 17]?
A: The AUC25 was 0.121.

Q: What about the AUC25 [5, 10] of the same compound?
A: Its AUC25 is 0.118.

Q: And the AUC25 [5, 18]?
A: Its AUC25 is 0.128.

Q: What about the AUC25 [5, 19] of the same compound?
A: Its AUC25 is 0.101.

Q: What about the AUC25 [5, 20] of the same compound?
A: Its AUC25 is 0.0909.

Q: And the AUC25 [5, 11]?
A: The AUC25 was 0.095.

Q: What about the AUC25 [5, 12] of the same compound?
A: Its AUC25 is 0.105.

Q: And the AUC25 [5, 13]?
A: Its AUC25 is 0.0706.

Q: And the AUC25 [5, 21]?
A: Its AUC25 is 0.0562.

Q: What about the AUC25 [5, 22] of the same compound?
A: Its AUC25 is 0.054.

Q: And the AUC25 [5, 15]?
A: The AUC25 was 0.0277.

Q: With `CO[C@H]1/C=C/O[C@@]2(C)Oc3c(C)c(O)c4c(O)c(c(/C=N/N5CCN(C)CC5)c(O)c4c3C2=O)NC(=O)/C(C)=C\C=C\[C@H](C)[C@H](O)[C@@H](C)[C@@H](O)[C@@H](C)[C@H](OC(C)=O)[C@@H]1C` [rifampicin] as the compound, how does the AUC25 [6, 16] read?
A: The AUC25 was 0.0889.

Q: And the AUC25 [6, 9]?
A: Its AUC25 is 0.0838.

Q: What about the AUC25 [6, 17] of the same compound?
A: Its AUC25 is 0.112.

Q: What about the AUC25 [6, 10] of the same compound?
A: The AUC25 was 0.1.

Q: What about the AUC25 [6, 18] of the same compound?
A: The AUC25 was 0.093.

Q: And the AUC25 [6, 19]?
A: The AUC25 was 0.0796.

Q: What about the AUC25 [6, 20] of the same compound?
A: The AUC25 was 0.0905.

Q: What about the AUC25 [6, 11] of the same compound?
A: Its AUC25 is 0.0772.

Q: What about the AUC25 [6, 12] of the same compound?
A: Its AUC25 is 0.0684.

Q: What about the AUC25 [6, 13] of the same compound?
A: The AUC25 was 0.0437.

Q: And the AUC25 [6, 21]?
A: The AUC25 was 0.0814.

Q: And the AUC25 [6, 22]?
A: Its AUC25 is 0.0576.

Q: What about the AUC25 [6, 15] of the same compound?
A: The AUC25 was 0.0385.

Q: What about the Einf [7, 16] of the same compound?
A: Its Einf is 0.838.

Q: What about the Einf [7, 9] of the same compound?
A: Its Einf is 0.98.

Q: And the Einf [7, 17]?
A: Its Einf is 0.892.

Q: What about the Einf [7, 10] of the same compound?
A: The Einf was 0.956.

Q: And the Einf [7, 18]?
A: Its Einf is 0.503.

Q: And the Einf [7, 19]?
A: The Einf was 0.855.

Q: What about the Einf [7, 20] of the same compound?
A: Its Einf is 0.927.

Q: What about the Einf [7, 11] of the same compound?
A: Its Einf is 0.999.

Q: And the Einf [7, 12]?
A: The Einf was 0.901.

Q: And the Einf [7, 13]?
A: The Einf was 0.978.

Q: What about the Einf [7, 14] of the same compound?
A: The Einf was 0.971.

Q: And the Einf [7, 21]?
A: Its Einf is 0.877.

Q: What about the Einf [7, 22] of the same compound?
A: The Einf was 0.86.

Q: And the Einf [7, 15]?
A: Its Einf is 0.943.

Q: And the GRinf [8, 16]?
A: Its GRinf is -0.0959.

Q: And the GRinf [8, 9]?
A: Its GRinf is -0.261.

Q: And the GRinf [8, 17]?
A: The GRinf was 0.0824.

Q: What about the GRinf [8, 10] of the same compound?
A: The GRinf was 0.0686.

Q: What about the GRinf [8, 18] of the same compound?
A: The GRinf was 0.296.

Q: What about the GRinf [8, 19] of the same compound?
A: Its GRinf is -0.0493.

Q: What about the GRinf [8, 20] of the same compound?
A: The GRinf was -0.416.

Q: What about the GRinf [8, 11] of the same compound?
A: The GRinf was -0.773.

Q: And the GRinf [8, 12]?
A: The GRinf was 0.176.

Q: What about the GRinf [8, 13] of the same compound?
A: The GRinf was -0.0601.

Q: And the GRinf [8, 14]?
A: Its GRinf is -0.261.

Q: And the GRinf [8, 21]?
A: The GRinf was 0.161.

Q: What about the GRinf [8, 22] of the same compound?
A: Its GRinf is 0.0731.

Q: What about the GRinf [8, 15] of the same compound?
A: The GRinf was 0.0202.
